Data reported in US9757361B2, “Treatment of psoriasis and of other skin disorders associated with inhibition of differentiation of epidermal cells” (priority 2001, dated 2017).
Entries after “also recorded” stand apart in the source; their conditions may differ.

How the values were obtained:
[1] = test system: CD44; assay: Immunohistochemical staining for the CD44 antigen; format: in vivo, human; details: lesional skin, 24th hour of treatment
Excerpt: What might be the key/proximal pathogenic event(s) intervened by cyclopamine? […] Both FIG. 4G and a closer-up view on FIG. 4H show decreased CD44 expression in the suprabasal and spinous layers in lesional epidermis in comparison to the situation in non-lesional epidermis.

[2] = test system: psoriatic lesional skin; assay: Histopathological examination (H&E) of treated psoriatic lesional skin; format: in vivo, human; details: treated half of lesion, 24th hour
Experimental: (§1) At intervals of 4 hours, approximately 30 μl cream was applied directly onto the lesion and the cream-applied region was covered against accidental smearing and loss of the cream (FIG. 1 B).
FIG. 2A to FIG. 2W show histopathological and immunohistochemical examination findings of the tissue sections from the non-lesional skin, cyclopamine-treated lesional skin and non-treated lesional skin. Compared to the non-lesional skin (FIG. 2A), the non-treated lesional skin (FIG. 2B) is seen to display the typical histopathological signs of a psoriatic skin lesion mentioned above in the “Background of Invention”. Tissue sections from the cyclopamine-treated half of the original lesion reveal, however, dramatic improvement and regression to normalcy. These histopathological signs of regression to normalcy, exemplified in the FIG. 2C and FIG. 2D (examples from other cyclopamine-treated lesions and patients are given later) include the following: […]

[3] = test system: psoriatic lesions; assay: Topical treatment of psoriatic lesions of patients, clinical response and EES scoring; format: in vivo, human
Experimental: The base cream used is made predominantly of heavy paraffin oil (10% w/w), vaseline (10% w/w), stearyl alcohol (8% w/w), polyoxylsteareth-40 (3% w/w) and water (68% w/w) but another suitably formulated base cream is also possible. […] The dosing and the application schedules followed for the lesion shown in FIG. 1A (psoriatic plaque on the dorsum of hand) are as follows: about 30 μl cream applied directly onto the lesion with the aid of a steel spatula every four hours for 24 hours. The cream-applied area is protected from accidental smearing and loss of the cream by covering with an aluminum applicator (FIG. 1 B). The dosing and the application schedules followed for the lesion shown in FIG. 1 D (psoriatic plaque at the scapular region) are as follows: about 30 μl cream applied directly onto the lesion every four hours for 24 hours. The cream-applied area is similarly covered against the smearing and loss of cream. Other treated psoriatic patients and lesions received from about 30 to 35 μl cream to each lesion at intervals of every 3 to 5 hours, as suitable and convenient. Lesions were similarly covered against the smearing and loss of cream. […] The corticosteroid used for treatment of the lesion shown in FIG. 4E was clobetasol 17-propionate in a final concentration of about 1.1 mM in base cream. […] Other corticosteroid molecules well known in the art are contemplated to be also suitable and capable of replacing the above-mentioned corticosteroid molecules at suitable concentrations (the suitable concentration ranges for corticosteroids are also known in the art).
as §1
Treatment was then discontinued and the lesion was followed-up.
Severity of psoriatic lesions can be assessed on a semi-quantitative scale by giving separate scores for the erythema, elevation and scaling of a lesion and then by summing up the scores to obtain a score called the EES score of that lesion (Bowman P. H. et al. (2002) J. Am. Acad. Dermatol. 46:907-913).

[4] = test system: EGFR; assay: Immunohistochemical staining for EGFR; format: in vivo, human; details: lesional skin treated with cyclopamine cream for 24 hours
Excerpt: Epidermal growth factor receptor (EGFR) is another marker known to display downregulation of expression with the differentiation of epidermal keratinocytes. […] Ordinarily EGFR expression is not detected immunohistochemically in the suprabasal layers of normal epidermis and the return of EGFR expression to the basal layer of epidermis is regarded to be one of the first signs of effective treatment of psoriasis by various modalities [King L E Jr. et al (1990) Journal of Investigative Dermatology 95: 10S-12S]. We evaluated the EGFR expression with anti-human EGFR antibody EGFR 113 (Novocastra Lab. Ltd., U.K.) and with immunohistochemical staining with peroxidase.

[5] = Follow-up of healthy / non-lesional skin after topical cyclopamine for adverse effects; details: for adverse effect of topical application on healthy / non-lesional skin: described concentration and dosing conditions
[6] = test system: CD4 positive lymphocytes; assay: Immunohistochemical staining for the CD4 antigen in lesional skin; format: in vivo, human; details: treated half of lesion, 24th hour
Excerpt: (§2) All reaction conditions were as recommended by the manufacturer.
Moreover, conversion of the CD4(−) and CD8(−) lymphocytes to the CD4(+) and CD8(+) lymphocytes is viewed widely in the prior art as a requirement for their psoriatic plaque causing action [reviewed in Krueger J G (2002) Journal of the American Academy of Dermatology 46:1-23].

[7] = test system: basal cell carcinoma cells; details: found earlier, PCT/TR 01/00027; cited from earlier work
[8] = test system: cytokeratin 15; assay: Immunohistochemical staining with the C8/144B antibody (cytokeratin 15); details: 24th hour
Excerpt: (§3) All antibodies and reagents for these immunohistochemical investigations were purchased from DAKO (Glostrup, Denmark); human Ki-67 antigen was detected by the monoclonal antibody M7187, human epithelial antigen was detected by the monoclonal antibody Ber-EP4, human CD4 antigen was detected by the monoclonal antibody M0716, human CD8 antigen was detected by the monoclonal antibody C8/144B. Besides the CD8 antigen, the monoclonal antibody C8/144B is known to recognize and bind to the cytokeratin 15 expressed by the hair stem cells (Kanitakis J. et al. (1999) Eur. J. Dermatol. 9:363-365). A DAKO “universal visualization kit” (LSAB2) employing biotinylated secondary antibody and peroxidase-conjugated streptavidin (pre-diluted to match the dilutions of DAKO-supplied primary antibodies) was used for the visualization reactions. All reaction conditions were as recommended by the manufacturer.

[9] = test system: epithelial antigen (Ber-EP4); assay: Immunohistochemical staining for the epithelial antigen with the Ber-EP4 antibody; format: in vivo, human; details: 24th hour
Excerpt: as §2
The monoclonal antibody Ber-EP4 is known to label the basal layer cells in normal epidermis. The outer root sheath of hair follicles, where the hair stem cells are thought to reside, are also known to be labeled with Ber-EP4.

[10] = test system: Ki-67 antigen; details: treated lesional skin, 24th hour
Excerpt: as §3
The Ki-67 antigen is a marker of the proliferating cells.

Structure (SMILES): CC1=C2C[C@H]3[C@@H](CC=C4C[C@@H](O)CC[C@@]43C)[C@@H]2CC[C@]12O[C@@H]1C[C@H](C)CN[C@H]1[C@H]2C [cyclopamine]
- CD44 expression in lesional epidermis [1]: rapid induction and normalization of the CD44 expression; also recorded: increase and normalization of the expression of CD44
- granular layer of epidermis [2]: Vigorous re-appearance
- hyperkeratosis and parakeratosis in the stratum corneum [2]: decreased but full normalization of this oldest epidermal layer did not yet happen
- inflammatory cells infiltrating the subepidermal dermis [2]: Disappearance from the cyclopamine-treated lesional skin of most of the inflammatory cells
- rete ridges and epidermal hyperplasia [2]: Return of the thickened and elongated rete ridges to normal levels and marked decrease of epidermal hyperplasia
- suprapapillary epidermis and papillary edema [2]: Return of the thinning of the suprapapillary epidermis to normalcy and the disappearance of papillary edema
- day on which the lesion cleared / became undetectable ([3]; 18 mM cyclopamine cream every fourth hour for 24 hours, then follow-up without treatment): > 8 days
- days of continued treatment until the lesion cleared ([3]; application every fourth hour until clearance): 3 to 4 days
- lesions subjected to single-day treatment that failed to clear completely ([3]; human, in vivo): about 29%
- effectiveness on treated psoriatic lesions of different patients and body parts ([3]; patients 29 to 57 years, lesions on extremities to trunk): highly effective on every psoriatic lesion for which it was used
- appearance of lesion site on the 14th day of follow-up ([3]; plaque at left scapular region, 1 day of treatment, FIG. 1F): No lesion is visible, skin appears normal
- appearance of lesion after 1 day of treatment and 7 days of follow-up ([3]; plaque at left scapular region, FIG. 1E): With the possible exception of slight erythema, lesion is no longer visible
- site of the treated lesion over a month of follow-up ([3]; scapular plaque, 1 day of treatment): healthy-looking normal skin
- EGFR expression in lesional epidermis [4]: rapidly normalized within 24 hours
- longest duration of follow-up of healthy skin with no adverse effect found ([5]; at the time of writing of the invention): over 14 months
- adverse effect of topical application on healthy / non-lesional skin [5]: no adverse effect has been detected
- adverse effect of topical application on healthy / non-lesional skin ([5]; listed as Cyclopamine): did not adversely affect the non-lesional skin; also recorded: no detectable adverse effect
- follow-up of skin sites of application showing healthy-looking normal skin and hair ([5]; interval since filing of PCT/TR 02/00017): more than 31 months
- CD4 positive lymphocytes infiltrating the lesional skin [6]: Disappearance of the CD4 positive lymphocytes from the dermis of treated area; also recorded: largely cleared
- Ber-EP4 staining of basal cells of normal epidermis exposed under the same conditions [7]: continued to be Ber-EP4 positive
- effect on basal cell carcinoma cells (differentiation, Ber-EP4 staining) [7]: cause their differentiation and caused loss of their Ber-EP4 staining
- cytokeratin 15 in basal cells of non-lesional epidermis after exposure ([8]; non-lesional skin): continued to be positive for the cytokeratin 15
- C8/144B (cytokeratin 15) labeling of epidermal basal layer cells of lesional skin ([8]; treated lesional skin): consistent restoration of the lost cytokeratin 15 expression; also recorded: normalized and became labeled by the C8/144B antibody
- Ber-EP4 staining of basal cells of non-lesional skin after exposure ([9]; non-lesional skin in psoriasis): remained Ber-EP4 positive
- Ber-EP4 labeling of epidermal basal layer cells of lesional skin ([9]; treated lesional skin): cyclopamine-induced reversion to normalcy; also recorded: Epidermal basal layer cells are seen to display the epithelial antigen; also recorded: reverted to normalcy
- frequency and epidermal position of Ki-67 antigen positive cells [10]: Return of the Ki-67 displaying cells to the epidermal basal layer; also recorded: return of both the frequency and the epidermal position of the Ki-67 antigen positive cells to normalcy
